Results: US20240335371A1, “MAGNESIUM SULFATE AND FORSKOLIN FOR TREATMENT OF SEXUAL DISORDERS AND BENIGN PROSTATIC HYPERPLASIA” (State-of-the-Art Technologies, Inc., priority 2023, published 2024)
Where two headings read alike, the source gives them in different places.

Key:
female low libido = details: cited from earlier work; for side effects: in vivo
ED = details: cited from earlier work
[1] = cited from earlier work
[2] = tested on: penis or female genitalia; test: Topical or transdermal administration of magnesium sulfate or forskolin to male and female subjects
From the text: The composition is generally applied generously to the penis and massaged thoroughly. In females, the composition may be applied to the female genitals and massaged. In various embodiments, the composition may also be applied on a penis or sex toy or suppository inserted into the vagina or ano-rectal region, or as a condom lubricant, penile lubricant, vaginal lubricant or anal lubricant.

In the case of `CCCC[C@H](NC(C)=O)C(=O)N[C@H]1CC(=O)NCCCC[C@@H](C(=O)O)NC(=O)[C@H](Cc2c[nH]c3ccccc23)NC(=O)[C@H](CCCN=C(N)N)NC(=O)[C@@H](Cc2ccccc2)NC(=O)[C@H](Cc2cnc[nH]2)NC1=O` [Bremelanotide], the side effects (female low libido) is given as “Nausea is a common side effect” and the “effect on number of satisfying sexual events compared to placebo” value (female low libido; self-administered injection about 45 minutes before a sexual encounter) is given as “minimal effect”.

For `CCCCC[C@H](O)/C=C/[C@H]1[C@H](O)CC(=O)[C@@H]1CCCCCCC(=O)O` [alprostadil], the “efficacy in ED” value (ED; intraurethral deposition) is given as “not effective in all patients”.

For `CN1CCc2cccc3c2[C@H]1Cc1ccc(O)c(O)c1-3` [apomorphine], the “efficacy in ED” value (ED; oral and sublingual therapies) is listed as “neither compound has demonstrated efficacy across a broad range of subjects”.

For `O=c1[nH]c2ccccc2n1CCN1CCN(c2cccc(C(F)(F)F)c2)CC1` [flibanserin], the side effects (female low libido) is listed as “sleepiness and fainting” and the “effect compared to placebo” value (female low libido; oral pill taken daily) is listed as “minimal compared to placebo”.

In the case of `C=C[C@@]1(C)CC(=O)[C@]2(O)[C@@]3(C)[C@@H](O)CCC(C)(C)[C@@H]3[C@H](O)[C@H](OC(C)=O)[C@@]2(C)O1` [forskolin, 7beta-acetoxy-8, 13-epoxy-1a, 6β, 9a-trihydroxy-labd-14-en-11-one], the lipid solubility [1] is listed as “lipid-soluble”, the solubility in water ([1]; water) is listed as “water soluble” and the “systemic side effects or drug interactions” value ([2]; human, in vivo) is listed as “no systemic side effects or drug interactions”.

In the case of `O=[N+]([O-])OCC(CO[N+](=O)[O-])O[N+](=O)[O-]` [glyceryl trinitrate (GTN), glyceryl trinitrate], the “efficacy in ED and side effects” value (ED; patches applied to the penis) is listed as “effective but produces side effects in both patient and partner”.

With `O=S(=O)([O-])[O-].[Mg+2]` [magnesium sulfate] the “systemic side effects or drug interactions” value ([2]; administered topically or by transdermal delivery) was “no systemic side effects or drug interactions”, the “taste of magnesium in mouth after topical administration (increased blood levels)” value ([2]; topical administration) was “tasted magnesium in their mouth within one minute” and the testosterone and libido ([2]; topical or transdermal administration, males and females) was “increased testosterone with increased libido in both males and females lasting for several weeks”. The “increase in penile length, size and turgidity versus control gel (KY jelly)” value ([2]; topical or transdermal application to the penis) was “significantly exceeds that obtained by topical or transdermal application of a control gel”.

In the case of `Cc1ccc(N(CC2=NCCN2)c2cccc(O)c2)cc1` [phentolamine], the “efficacy in ED” value (ED; oral and sublingual therapies) is listed as “neither compound has demonstrated efficacy across a broad range of subjects”.
